Source: publication PMC6254802, “Development of a High-Throughput Assay for Screening of γ-Secretase Inhibitor with Endogenous Human, Mouse or Drosophila γ-Secretase” (Molecules, 2009)
Read-outs that look alike come from different tables or passages of the source.

Tests used:
human γ-secretase = molecular target: T1, human γ-secretase (Homo sapiens, UniProt P49768); assay: Fluorogenic substrate assay with endogenous human γ-secretase from HEK293T cell membrane; format: biochemical; conditions: for IC50: 10 μg membrane protein, 6 μM substrate, 5 h, 37 °C, mean ± SEM; for maximal inhibition: human γ-secretase, relative to 1 μM L685,458 = 100%
T1 construct: endogenously expressing human γ-secretase from HEK293T cell membrane; endogenous in cells; host or cells: HEK293T cells (membrane fraction, solubilised with 0.25% CHAPSO)
Protocol: All procedures were carried out at 4 °C. […] Mouse cortex was homogenized with 15 stokes of pestle A in the same lysis buffer. The homogenates were centrifuged at 800 g for 10 min to remove nuclei and large debris. The supernatants were centrifuged at 25,000 g for 1 h at 4 °C and the membrane pellets were resuspended in reaction buffer containing 50 mM Tris-HCl (pH 6.8), 2 mM EDTA, 150 mM KCl and Complete^TM protease inhibitor cocktail.
For assay optimization, aliquots of membrane protein (5~30 μg) was added to each well of a 96-well plate with various concentrations of fluorogenic substrate (4~8 μM). Different concentrations of compounds were added and the final reaction system was adjusted to 100 μL/well with the reaction buffer. The plate was incubated at 37 °C in a humidified atmosphere for indicated time periods. Fluorescence was measured using a BIOTEK FLX800 microplate reader with the excitation wavelength at 355 nm and the emission wavelength at 440 nm. The activity of γ-secretase was presented as the relative fluorescent unit (RFU). For compound screening, 1 μM of L685,458 was used as a positive control, and 1% DMSO was used as negative control.
(§1) Data were analyzed with GraphPad Prism software (GraphPad, San Diego, CA, USA). Non-linear regression analyses were performed to generate dose-response curves and calculate IC50 values, and linear regression was used to analyze data reproducibility. Mean ± SEM was calculated automatically with this software. Z’ factor was calculated by the following equation: Z’ = 1 - (3SD++3SD-) / │Ave+ - Ave-│ in which SD+ is the standard deviation of positive control, SD-is the standard deviation of negative control, Ave+ is the mean value of the positive control, and Ave-is the mean value of the negative control.

drosophila γ-secretase = molecular target: T2, drosophila γ-secretase (Drosophila melanogaster, UniProt O02194); assay: Fluorogenic substrate assay with drosophila γ-secretase from S2 cell membrane; format: biochemical
T2 construct: membrane containing drosophila or mouse γ-secretase was isolated from S2 cells or mouse cortex, respectively; host or cells: Drosophila Schneider 2 (S2) cells, membrane fraction
T2 sequence (O02194 whole entry): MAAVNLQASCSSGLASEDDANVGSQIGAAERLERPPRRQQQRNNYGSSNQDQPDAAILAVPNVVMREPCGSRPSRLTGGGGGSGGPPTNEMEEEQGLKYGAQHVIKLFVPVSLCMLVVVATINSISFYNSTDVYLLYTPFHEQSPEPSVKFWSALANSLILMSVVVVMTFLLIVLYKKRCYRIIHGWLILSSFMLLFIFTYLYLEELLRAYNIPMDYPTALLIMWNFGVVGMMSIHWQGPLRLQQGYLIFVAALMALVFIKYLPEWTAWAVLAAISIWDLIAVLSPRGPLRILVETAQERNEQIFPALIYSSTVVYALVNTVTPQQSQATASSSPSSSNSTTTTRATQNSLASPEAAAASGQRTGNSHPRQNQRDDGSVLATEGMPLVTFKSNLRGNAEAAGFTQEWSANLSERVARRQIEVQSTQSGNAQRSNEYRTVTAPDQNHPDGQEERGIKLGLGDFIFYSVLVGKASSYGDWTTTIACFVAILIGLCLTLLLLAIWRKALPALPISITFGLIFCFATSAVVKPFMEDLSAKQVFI
T2 sequence (Q9VC27 23-695 partner): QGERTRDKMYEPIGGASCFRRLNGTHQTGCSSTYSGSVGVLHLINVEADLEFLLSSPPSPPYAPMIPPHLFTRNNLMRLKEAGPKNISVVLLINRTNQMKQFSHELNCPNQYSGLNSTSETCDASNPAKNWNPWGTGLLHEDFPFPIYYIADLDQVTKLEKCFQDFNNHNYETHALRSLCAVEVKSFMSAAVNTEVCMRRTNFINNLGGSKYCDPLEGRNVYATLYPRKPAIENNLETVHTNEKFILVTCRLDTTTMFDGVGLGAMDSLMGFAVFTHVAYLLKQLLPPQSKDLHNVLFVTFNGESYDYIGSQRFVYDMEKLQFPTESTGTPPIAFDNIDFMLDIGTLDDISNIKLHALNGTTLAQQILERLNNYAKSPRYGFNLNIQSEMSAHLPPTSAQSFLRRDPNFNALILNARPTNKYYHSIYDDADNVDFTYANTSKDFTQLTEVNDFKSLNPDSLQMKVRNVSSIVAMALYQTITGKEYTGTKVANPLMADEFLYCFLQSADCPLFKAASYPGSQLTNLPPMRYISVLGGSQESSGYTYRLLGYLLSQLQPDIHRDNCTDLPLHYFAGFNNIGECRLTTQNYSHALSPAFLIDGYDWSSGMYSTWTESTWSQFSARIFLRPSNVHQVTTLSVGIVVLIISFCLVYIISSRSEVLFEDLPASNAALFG
T2 sequence (Q9VQG2 whole entry partner): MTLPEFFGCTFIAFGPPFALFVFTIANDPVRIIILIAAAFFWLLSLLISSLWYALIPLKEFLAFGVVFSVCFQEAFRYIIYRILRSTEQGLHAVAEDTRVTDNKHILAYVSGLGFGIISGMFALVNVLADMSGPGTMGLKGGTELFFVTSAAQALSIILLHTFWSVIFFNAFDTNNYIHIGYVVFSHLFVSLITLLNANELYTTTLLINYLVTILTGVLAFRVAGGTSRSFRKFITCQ
T2 sequence (Q86BE9 whole entry partner): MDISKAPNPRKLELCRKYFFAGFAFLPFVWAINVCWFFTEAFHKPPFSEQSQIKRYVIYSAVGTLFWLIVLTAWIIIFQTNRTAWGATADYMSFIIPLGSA

mouse γ-secretase = assay: Fluorogenic substrate assay with mouse γ-secretase from mouse cortex membrane; format: biochemical; conditions: mean ± SEM, n = 3
Protocol: All procedures were carried out at 4 °C. HEK 293T or S2 cells were washed with ice-cold PBS by centrifugation at 500 g for 5 min and the pellets were homogenized with a Dounce homogenizer (pestle B, 15 strokes) in lysis buffer contained 5 mM Tris-HCl (pH 7.4), 5 mM EDTA, 5 mM EGTA and Complete^TM protease inhibitor cocktail. Mouse cortex was homogenized with 15 stokes of pestle A in the same lysis buffer. The homogenates were centrifuged at 800 g for 10 min to remove nuclei and large debris. The supernatants were centrifuged at 25,000 g for 1 h at 4 °C and the membrane pellets were resuspended in reaction buffer containing 50 mM Tris-HCl (pH 6.8), 2 mM EDTA, 150 mM KCl and Complete^TM protease inhibitor cocktail. After measuring the protein concentration, the membranes were diluted to 1 mg/ml in 50 mM Tris-HCl, pH 6.8, 2 mM EDTA, 150 mM KCl, 0.25% CHAPSO.
For assay optimization, aliquots of membrane protein (5~30 μg) was added to each well of a 96-well plate with various concentrations of fluorogenic substrate (4~8 μM). Different concentrations of compounds were added and the final reaction system was adjusted to 100 μL/well with the reaction buffer. The plate was incubated at 37 °C in a humidified atmosphere for indicated time periods. Fluorescence was measured using a BIOTEK FLX800 microplate reader with the excitation wavelength at 355 nm and the emission wavelength at 440 nm. The activity of γ-secretase was presented as the relative fluorescent unit (RFU). For compound screening, 1 μM of L685,458 was used as a positive control, and 1% DMSO was used as negative control. The inhibition rate of each compound was calculated with the following equation: InhibitionCompound % = (Average Value1%DMSO-Average Value Compound)/(Average Value1%DMSO-Average ValueL685,458) × 100%. So the inhibition rate of 1 μM L685,458 is 100% and that of 1% DMSO is 0. The samples showing more than 60% inhibition were considered as “hits” in the screening.
as §1

γ-secretase (Aβ) = conditions: In vivo γ-secretase assay; read-out: Reported IC50 (Aβ); cited from earlier work
γ-secretase (Aβ40, Aβ42) [1] = molecular target: γ-secretase (Aβ40, Aβ42); set-up: method as in PMID 11574530; conditions: immunoblotting assay, cited from earlier work
γ-secretase [2] = molecular target: γ-secretase; set-up: method as in PMID 16569643; conditions: in vitro γ-secretase assay; read-out: Reported IC50; cited from earlier work
γ-secretase (Aβ40, Aβ42) [3] = molecular target: γ-secretase (Aβ40, Aβ42); set-up: method as in PMID 15341524; conditions: Aβ ELISA assay, cited from earlier work
Sup-T1 NICT = tested on: Sup-T1 NICT; set-up: method as in PMID 15319485; conditions: Sup-T1 NICT assay; read-out: Reported IC50; cited from earlier work
Aβ1-42 = tested on: Aβ1-42; set-up: method as in PMID 10882355; conditions: read-out: Reported IC50 (Aβ1-42); cited from earlier work
γ-secretase [4] = molecular target: γ-secretase; set-up: method as in PMID 10913280; conditions: HTRF assay; read-out: Reported IC50; cited from earlier work
[5] = S2 cell membrane, mean ± SEM, n = 3, read-out: drosophila γ-secretase IC50

| SMILES | IC50 (human γ-secretase) [nM] | maximal inhibition (human γ-secretase) [%] | IC50 (drosophila γ-secretase; [5]) [nM] | IC50 (mouse γ-secretase) [nM] | IC50 (γ-secretase (Aβ)) [nM] | IC50 (drosophila γ-secretase) [nM] | IC50 (γ-secretase (Aβ40, Aβ42) [1]; read-out: Reported IC50 (Aβ40)) [nM] | IC50 (γ-secretase (Aβ40, Aβ42) [1]; read-out: Reported IC50 (Aβ42)) [nM] | IC50 (γ-secretase [2]) [nM] | IC50 (γ-secretase (Aβ40, Aβ42) [3]; read-out: Reported IC50 (Aβ40)) [nM] | IC50 (γ-secretase (Aβ40, Aβ42) [3]; read-out: Reported IC50 (Aβ42)) [nM] | IC50 (Sup-T1 NICT) [nM] | IC50 (Aβ1-42) [nM] | IC50 (γ-secretase [4]) [nM] |
| --- | --- | --- | --- | --- | --- | --- | --- | --- | --- | --- | --- | --- | --- | --- |
| COC(=O)[C@@H](NC(=O)[C@H](CC(C)C)NC(=O)N(Cc1ccccc1)C[C@@H](O)[C@H](Cc1ccccc1)NC(=O)OC(C)(C)C)C(C)C [31C] | 53.5 ± 13.6 | 103.1 | 0.933 ± 0.169 | 20.7 ± 5.24 | 300 |  |  |  |  |  |  |  |  |  |
| C[C@H](NC(=O)Cc1cc(F)cc(F)c1)C(=O)N[C@H]1N=C(c2ccccc2)c2ccccc2N(C)C1=O [Compound E] | 53.9 ± 5.31 | 92.3 |  | 2.4 ± 0.605 |  | 40.5 ± 7 | 0.24 | 0.37 | 7 | 0.8 | 7 |  |  |  |
| C[C@H](NC(=O)Cc1cc(F)cc(F)c1)C(=O)N[C@H](C(=O)OC(C)(C)C)c1ccccc1 [DAPT, N-[N-(3,5-difluorophenacetyl)-L-alanyl]-S-phenylglycine t-butyl ester] | 3910 ± 551 | 69.7 |  |  |  |  |  |  |  | 1600 | 4000 |  |  |  |
| C[C@H](NC(=O)Cc1cc(F)cc(F)c1)C(=O)N[C@@H]1C(=O)N(C)c2ccccc2-c2ccccc21 [DBZ] | 12.5 ± 5.76 | 95.2 | 6.97 ± 1.98 | 1.45 ± 0.435 |  |  |  |  |  |  |  | 1.7 |  |  |
| CC12CCC(C1)C(C)(C)C2NS(=O)(=O)c1ccc(F)cc1 (stereo not drawn) [Inhibitor VI] | 44500 ± 25600 | 67.3 |  |  |  |  |  |  |  |  |  |  | 1800 |  |
| CC(C)C[C@H](NC(=O)[C@H](Cc1ccccc1)C[C@@H](O)[C@H](Cc1ccccc1)NC(=O)OC(C)(C)C)C(=O)N[C@@H](Cc1ccccc1)C(N)=O [L685,458] | 4.43 ± 0.969 |  | 10.3 ± 1.66 | 0.976 ± 0.147 |  |  | 4 | 8 | 3 |  |  |  |  | 17 |
